Entries after “also recorded” stand apart in the source; their conditions may differ.
Legend:
NF-κB [1] = assay: NF-κB-dependent SEAP reporter gene assay, Panc28 cells; type: cell-based, human
Protocol: (§1) NF-κB dependent reporter gene transcription was analyzed using secretory alkaline phosphatase (SEAP) assay as described previously. Briefly, Panc28 and MCF-7 cells (5×10^5 cells/well in a six-well plate) were transiently transfected by the calcium phosphate method in a 1 ml medium containing 0.5 μg of NF-κB promoter DNA, linked to the heat-stable SEAP gene or with the control plasmid pCMV-FLAG1 DNA. Transfected cells were either left untreated or treated with 1 μM A23187 (Sigma-Aldrich), 1 mM BPA, or 1 nM tumor necrosis factor (TNF)-α (Genentech, South San Francisco, Calif.). Twenty-four hours after treatment, the conditioned medium was removed and assayed for SEAP activity according to the manufacturer's instructions (Clontech Laboratories, Mountain View, Calif.) using an automated microplate reader (PerkinElmer, Wellesley, Mass.). In some experiments cells were co-transfected with dominant-negative construct of IκBα along with NF-κB reporter gene.

NF-κB [2] = assay: NF-κB activation by EMSA, MCF-7 cells; type: cell-based, human; conditions: MCF-7 cells (lack TG2)
Protocol: (§2) To assess NF-κB activation, electrophoretic mobility shift assay (EMSA) was performed as described previously. Briefly, nuclear extracts prepared from cells (1×10^6/ml) were incubated with a ^32P end-labeled 45-mer double-stranded NF-κB oligonucleotide (15 μg of protein with 16 fmol of DNA) from the human immunodeficiency virus long terminal repeat, 5′-[…] […] CGCTG […] […]-3′ (boldface indicates NF-κB binding sites) (SEQ ID NO:17), for 30 minutes at 37° C., and the DNA-protein complex formed was separated from free oligonucleotide on 6.6% native polyacrylamide gels. A double-stranded mutated oligonucleotide, 5′-[…] […] CGCTG […] […]-3′ (SEQ ID NO:18), was used to examine the specificity of binding of NF-κB to the DNA. The specificity of binding was also examined using competition with the unlabeled and mutated oligonucleotides. For supershift assays, nuclear extracts were incubated with antibodies against either the p50 or the p65 subunit of NF-κB for 30 minutes at 37° C. before the complex was analyzed using EMSA.

NF-κB [3] = assay: NF-κB activation by EMSA, BxPc3 cells; type: cell-based, human; conditions: 1 μM or 2 μM, 24 hours
Protocol: as §2

NF-κB [4] = assay: NF-κB activation by EMSA, Panc28 cells; type: cell-based, human; conditions: for effect on A23187-induced activation of NF-κB: Panc28
Protocol: as §2

NF-κB [5] = assay: NF-κB-dependent SEAP reporter gene assay, MCF-7/WT cells; type: cell-based, human
Protocol: as §1

Panc-28 cells = assay: Gemcitabine cytotoxicity, MTS assay, Panc-28; type: cell-based; conditions: Homo sapiens, 72 hours
Protocol: (§3) The number of viable cells remaining after the appropriate treatment was determined by measuring their ability to reduce 3-(4,5-dimethylthiazol-2-yl)-5-(3-carboxymethoxyphenyl)-2H-tetrazolium (MTS) into a soluble formazan in accordance with the manufacturer's instructions. Logarithmically growing cells were plated at 2×10^3 cells per well in 96-well plates and allowed to adhere overnight. […] Each experiment was repeated three times in triplicate. […] Under identical conditions, the cells were trypsinized, and the cell viability was determined with a trypan blue exclusion test to confirm the MTS results.

VEGF, pAkt (ser473) = assay: VEGF and pAkt expression in Panc-28 tumors; set-up: species or system nude mice; conditions: mouse, in vivo
Protocol: Pancreatic tumor tissue samples obtained from control and experimental mice were minced and incubated on ice for 30 min in 0.5 ml of ice-cold lysate buffer (20 mmol/L Tris-HCl, pH 7.4, containing 10% NP-40, 5 mol/L NaCl, 1 mol/L HEPES, 0.5 mol/L EDTA, 0.1 mol/L phenylmethylsulfonyl fluoride, 0.2 mol/L sodium orthovanadate, 1 mol/L NaF, 2 μg/ml aprotinin, and 2 μg/ml leupeptin). The minced tissue was homogenized using a Dounce homogenizer and centrifuged at 16,000×g at 4° C. for 10 min. Fifty micrograms of total protein from each sample was then fractionated using sodium dodecyl sulfate-polyacrylamide gel, electrotransferred onto nitrocellulose membranes, blotted with appropriate antibodies, and antigen antibody reaction detected using enhanced chemiluminescence (Amersham Pharmacia Biotech, Piscataway, N.J.). […] The protein bands obtained were quantified using the AlphaEase FC (Fluor Chem 8900) software program (Alpha Innotech, San Leandro, Calif.).
Tissue microarray slides constructed using 65 formalin-fixed patient tumor samples and 9 normal pancreatic tissue samples were used for this study. […] TG2 protein expression in these tumor samples and xenograft tumors from siRNA treated mice was evaluated immunohistochemically using the Vectastatin Elite ABC immunostaining kit (Vector Laboratories, Burlingame, Calif.) as described previously (12). […]

Panc-28 tumors [6] = assay: Ki-67 proliferation staining of Panc-28 tumors; set-up: species or system nude mice; conditions: mouse, in vivo
Excerpt: Ki-67 staining was used to evaluate the proliferation index of in vivo growing xenografts and expressed as the number of Ki-67^+ cells±standard error (SE) as determined by counting 10 random microscopic fields for three different tumor samples per treatment group.

Panc-28 tumors [7] = assay: Orthotopic Panc-28 PDAC tumor model: tumor growth and metastasis; type: in vivo, nude (nu/nu) mice; conditions: vs control siRNA group, end of treatment
Excerpt: Panc-28 cells were stably transduced with the firefly luciferase gene as described previously (23). Luciferase-infected Panc-28 cells were harvested from subconfluent cultures after brief exposure to 0.25% trypsin and 0.2% EDTA. Trypsinization was stopped with the medium containing 10% fetal bovine serum. The cells were washed once in serum-free medium and resuspended in PBS. Single cell suspensions with >90% cell viability were used for implantation into the mice. Animals were anesthetized using intraperitoneal injection of 200 μl ketamine (100 mg/kg) and xylazine (5-10 mg/kg). […] The incision was closed in a single layer using sterile surgical Autoclips (Braintree Scientific, Braintree, Mass.), antibacterial mycotic cream was applied to the wound and the animal was placed on a heating pad to maintain body temperature and closely monitored until conscious.
Tumor growth in the mice after tumor-cell implantation was monitored weekly using a noninvasive bioimaging technique. […] Ten minutes after injection, each mouse was placed in the right lateral decubitus position, and bioluminescence was measured using a cryogenically cooled IVIS imaging system coupled with a data acquisition computer running LivingImage software (Xenogen Corp., Alameda, Calif.). […] The signal intensity was quantified as the sum of all detected photons within the region of interest per second per cm^2 per steridian. […]

Panc-28 tumors [8] = assay: Microvessel density (CD31) in Panc-28 tumors; type: in vivo, nude mice; conditions: CD31 staining
Excerpt: A rat anti-mouse CD31 monoclonal antibody was used to determine the microvessel density in xenografts. The CD31 stained slides were observed under a Leica DM4000B fluorescence microscope (Leica Microsystems Inc, Bannockburn, Ill.) equipped with SPOT-RTKE digital camera (Diagnostic instruments, Sterling Heights, Mich.) and the images were acquired and stored using SPOT advanced software (Diagnostic instruments, Sterling Heights, Mich.). The stored images were processed using NIH ImageJ software. The vessel density in each image was estimated by setting a minimum threshold of 4 pixel^2. Setting a minimum threshold enables to avoid the background non-specific staining and to eliminate the fluorescence signal from single endothelial cell. Results were expressed as the mean number of vessels±SE per high power field (HPF, 100× magnification). A total of 20 random HPFs were examined and counted in four different tumor samples from each treatment group.

BxPC-3 cells = assay: Gemcitabine cytotoxicity, MTS assay, BxPC-3; type: cell-based; conditions: Homo sapiens
Protocol: as §3

MiaPaCa-2 cells = assay: Gemcitabine cytotoxicity, MTS assay, MiaPaCa-2; type: cell-based; conditions: Homo sapiens, MIA PaCa-2, 72 hours
Protocol: as §3

Panc-28 tumors [9] = assay: TUNNEL assay of apoptosis in Panc-28 tumors; type: in vivo, nude mice
Protocol: Terminal deoxynucleotidyl transferase mediated […] nick end labeling (TUNNEL) assay (Roche Molecular Biochemicals, Mannhein, Germany) of frozen sections to detect apoptotic cells was performed according to the manufacturer's protocol. The apoptotic fluorescence-positive cells were counted under a microscope and expressed as the percentage of total cells±SE. Ten fields in three tumors per treatment group were examined.

**Q.** CNc1ccc2oc(C[C@H]3O[C@@]4(CC[C@H]3C)O[C@H]([C@H](C)C(=O)c3ccc[nH]3)[C@H](C)C[C@H]4C)nc2c1C(=O)O [A23187] was tested. Which “SEAP expression in response to A23187” value (NF-κB [1]; Panc28, 1 µM for 24 hours) did it give?
**A.** did not increase further

**Q.** And the NF-κB activation (NF-κB [2])?
**A.** failed to show an increase in NF-κB activation

**Q.** What about the NF-κB activation (NF-κB [3]) of the same compound?
**A.** strong activation of NF-κB

**Q.** And the “basal TG2 activity and constitutive NF-κB activation” value (NF-κB [4]; Panc28 cells)?
**A.** could be further induced

**Q.** What about the “A23187-induced SEAP activity” value (NF-κB [5]) of the same compound?
**A.** No basal or A23187-induced activity of SEAP

**Q.** What does the source list for NCCCCCNC(=O)CCCC[C@@H]1SC[C@@H]2NC(=O)N[C@@H]21 [BPA, 5-(biotinamido) pentylamine]?
**A.** inhibition of SEAP expression (NF-κB [1]; Panc28, P<0.002): significantly inhibited; inhibition at 1000 µM (NF-κB [4]; Homo sapiens, Panc28, 1 mM for 24 hours, read-out: inhibition of constitutive activation of NF-κB): ~70%; effect on A23187-induced activation of NF-κB (NF-κB [4]): failed to further augment A23187-induced activation of NF-κB; inhibition of TNF-α-induced SEAP expression (NF-κB [5]; BPA 1 mM): not by BPA

**Q.** With CN(C)c1cccc2c(S(=O)(=O)NCCCCCN)cccc12 [MDC, monodansylcadaverine] as the compound, how does the inhibition at 50 µM (NF-κB [4]; Homo sapiens, Panc28, 50 μM, 24 hours) read?
**A.** ~60%

**Q.** What about the “effect on A23187-induced activation of NF-κB” value (NF-κB [4]) of the same compound?
**A.** blocked A23187-induced activation

**Q.** For Nc1ccn([C@@H]2O[C@H](CO)[C@@H](O)C2(F)F)c(=O)n1 [gemcitabine], which IC50 (Panc-28 cells) is on record?
**A.** 1000 nM

**Q.** What about the “pAkt (serine 473) in tumors” value (VEGF, pAkt (ser473)) of the same compound?
**A.** no significant changes in NF-κB activity or pAkt levels

**Q.** And the Ki-67 staining (Panc-28 tumors [6])?
**A.** high levels of Ki-67 staining

**Q.** And the metastasis score (Panc-28 tumors [7])?
**A.** completely ineffective in inhibiting metastasis; also recorded: no decreases in the metastasis score

**Q.** What about the “mean blood vessel / microvascular density” value (Panc-28 tumors [8]) of the same compound?
**A.** significant decrease in the mean blood vessel density

**Q.** What about the IC50 (BxPC-3 cells; BxPC-3 cells (TG2-deficient), 72 hours) of the same compound?
**A.** 10 nM

**Q.** And the IC50 (BxPC-3 cells; BxPC-3 cells infected with TG2wt adenoviral construct, data not shown)?
**A.** 100 nM

**Q.** What about the IC50 (MiaPaCa-2 cells) of the same compound?
**A.** 100 nM

**Q.** What about the “apoptotic cells in tumors” value (Panc-28 tumors [9]) of the same compound?
**A.** significant increases in the numbers of apoptotic cells

**Q.** With TNF-α as the compound, how does the SEAP reporter expression (NF-κB [5]; TNF 1 nM, fold over non-transfected control) read?
**A.** 14 fold
